Two compounds from US6187754A, “Sialyl-Lewisa and sialyl-Lewisx epitode analogues” (GlycoTech Corp., priority 1996, dated 2001) can be followed below.

Series [1] in a line: Remark on solubility in NMR characterisation. The class given is physicochemical. To be noted: CD3OD-D2O-CDCl3 (NMR solvent); no 13C NMR.
Series [2] can be described thus: Remark on oxidation sensitivity in NMR characterisation. To be noted: no long-term 13C-NMR measurement. The class given is physicochemical.

With `COC(=O)CCCCCCCCO[C@@H]1O[C@H](CO)[C@@H](O[C@@H]2O[C@H](CO)[C@H](O)[C@H](O[C@]3(C(=O)O)C[C@H](O)[C@@H](NC(C)=O)[C@H]([C@H](O)[C@H](O)CO)O3)[C@H]2O)[C@H](O)[C@H]1NC(=O)c1cnc2nc(N)nc(O)c2n1` [(59)], the solubility result in series [1] is recorded as “poor solubility”.

With `COC(=O)CCCCCCCCO[C@@H]1O[C@H](CO)[C@@H](O)[C@H](O[C@@H]2O[C@H](CO)[C@H](O)[C@H](O[C@]3(C(=O)O)C[C@H](O)[C@@H](NC(C)=O)[C@H]([C@H](O)[C@H](O)CO)O3)[C@H]2O)[C@H]1NC(=O)c1ccc(O)c(O)c1` [(73)], in series [2], the “sensitivity to oxidation in organic solvents” value is on record as “sensitivity of the compound to oxidation in organic solvents”.
